Assay [1] concerns the target JNK3 kinase (Homo sapiens, UniProt P53779). Nature of the assay: Assay for inhibition of JNK3 activity. Type of assay: biochemical. Conditions: fluorescence polarization, ATP 6 μM; read-out: IC50s expressed as micromolar. The protocol: The inhibition of the kinase activity is determined by fluorescence polarization, the JNK3 kinase phosphorylates a peptide detected by adding an anti-phosphopeptide antibody coupled to a fluorescent label.
The assay is carried out in a final volume of 30 μl; all the reagents are prepared in a buffer: • 50 mM HEPES pH 7.5 • 0.03% triton X100 • 10 mM MgCl2 • 5% Glycerol • 1 mM DTT 10 μl of the 10-times concentrated inhibitor are added to 5 μl of enzyme (40 ng final concentration), and 5 μl of incubation buffer containing 100 ng of substrate and 10 μl of ATP (6 μM final concentration) are added.
A general note: Fluorescence polarisation rises when a labelled molecule tumbles more slowly, as on binding a larger partner.

The subject of assay [2] is Aspergillus fumigatus. Nature of the assay: Minimum inhibitory concentration in liquid medium, micro method (NCCLS M27-A). Type of assay: cell-based. Conditions: Aspergillus fumigatus; at least 80% inhibition of growth, read after 48-72 h at 37° C., RPMI 1640.
In assay [3] the target is Cyclin Dependent kinase 1 (CDK1) (Homo sapiens, UniProt P06493). Nature of the assay: Assay for inhibition of CDK1 activity. Type of assay: biochemical. Conditions: [33P]ATP, read-out: percentage inhibition at 20 μM. The protocol:
The inhibition of the kinase activity of Cyclin Dependent kinase 1 (CDK1) is determined by measuring the phosphorylation of its substrate peptide.
The test is carried out in a final volume of 50 μl.
The incubation buffer is as follows:
• 50 mM Tris/HCl pH 7.5 • 10 mM MgCl2 • […] Na2VO4 • 2 mM DTT • 40 mM Beta-glycerophosphate • 0.1 mg/ml BSA 5 μl of the 10-times concentrated inhibitor are added to 25 μl of incubation buffer containing 0.04 U/μl final concentration of the enzyme; 10 μl of incubation buffer containing 12.5 μM final concentration of peptide substrate are then added and, finally, 10 μl of incubation buffer containing 50 μM ATP and radiolabeled ATP, [^33P]ATP (0.5 μCi), are added. The reaction is stopped after incubation for 40 minutes at ambient temperature. • Results obtained expressed as percentage inhibition at 20 μM • Example 8 93% • Example 30 99% 5) Assay for Inhibition of Abl Activity

Assay [4] deals with GSK3beta (Homo sapiens, UniProt P49841). As to the kind of experiment: Assay for inhibition of GSK3beta activity. Type of assay: biochemical. Particulars: [33P]ATP; read-out: IC50s expressed as micromolar. How it is done:
The inhibition of the kinase activity is determined by measuring the phosphorylation of its substrate peptide.
The assay is carried out in a final volume of 40 μl; all the reagents are prepared in a buffer: • 50 mM HEPES pH 7.5 • 0.03% triton X100 • 10 mM MgCl2 • 5% Glycerol • 1 mM DTT 10 μl of the 10-times concentrated inhibitor are added to 5 μl of enzyme (20 ng final concentration), and 5 μl of peptide (1 μM final concentration) then 2.5 μof incubation buffer containing 16 μM ATP and 2.5 μl of radiolabeled ATP, [^33P]ATP (50 nCi) are added. After incubation for 15 minutes at ambient temperature, 10 μl of incubation buffer containing 1 μM of substrate.

In assay [5] the target is Cyclin Dependent kinase 2 (CDK2) (Homo sapiens, UniProt P24941). As to the kind of experiment: Assay for inhibition of CDK2 activity. Particulars: [33P]ATP, read-out: percentage inhibition at 20 μM. Format: biochemical. How it is done: The inhibition of the kinase activity of Cyclin Dependent kinase 2 (CDK2) is determined by measuring the phosphorylation of its substrate peptide.
The assay is carried out in a final volume of 50 μl.
The incubation buffer as follows:
• 50 mM Hepes/NaOH pH 7.5 • 10 mM MgCl2 • 1 mM DTT 5 μl of the 10-times concentrated inhibitor are added to 25 μl of incubation buffer containing 0.8 U/μL final concentration of the enzyme; 10 μL of incubation buffer containing 0.0025 mg/ml of peptide substrate are then added and, finally, 10 μL of incubation buffer containing 2 mM ATP and radiolabeled ATP, [^33P]ATP (0.25 μCi), are added. The reaction is stopped after incubation for 10 minutes at 37° C. • Results obtained expressed as percentage inhibition at 20 μM • Example 2 97% • Example 27 97% • Example 30 99% 4) Assay for Inhibition of CDK1 Activity

Chain of Cyclin Dependent kinase 1 (CDK1) (P06493 whole entry, species assumed): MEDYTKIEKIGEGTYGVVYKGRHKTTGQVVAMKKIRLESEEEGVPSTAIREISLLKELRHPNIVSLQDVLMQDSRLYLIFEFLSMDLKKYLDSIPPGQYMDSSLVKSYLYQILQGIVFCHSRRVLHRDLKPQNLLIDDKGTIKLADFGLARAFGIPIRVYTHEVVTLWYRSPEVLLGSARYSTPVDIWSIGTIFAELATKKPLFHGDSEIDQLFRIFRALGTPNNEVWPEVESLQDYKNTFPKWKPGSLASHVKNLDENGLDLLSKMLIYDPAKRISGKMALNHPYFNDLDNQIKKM
Chain of Cyclin Dependent kinase 1 (CDK1) (P14635 whole entry partner, species assumed): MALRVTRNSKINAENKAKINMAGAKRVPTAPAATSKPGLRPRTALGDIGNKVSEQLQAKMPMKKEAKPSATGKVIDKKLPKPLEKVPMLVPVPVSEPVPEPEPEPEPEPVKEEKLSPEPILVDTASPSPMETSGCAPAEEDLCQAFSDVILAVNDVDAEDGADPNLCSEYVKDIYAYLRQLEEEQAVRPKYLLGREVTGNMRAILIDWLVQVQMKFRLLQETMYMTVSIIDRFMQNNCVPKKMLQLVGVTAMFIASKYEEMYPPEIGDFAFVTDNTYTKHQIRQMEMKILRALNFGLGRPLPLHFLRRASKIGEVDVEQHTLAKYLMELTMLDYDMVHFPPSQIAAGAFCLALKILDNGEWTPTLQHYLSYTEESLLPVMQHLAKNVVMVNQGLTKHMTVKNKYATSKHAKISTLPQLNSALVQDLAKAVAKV
Chain of JNK3 kinase (P53779 whole entry): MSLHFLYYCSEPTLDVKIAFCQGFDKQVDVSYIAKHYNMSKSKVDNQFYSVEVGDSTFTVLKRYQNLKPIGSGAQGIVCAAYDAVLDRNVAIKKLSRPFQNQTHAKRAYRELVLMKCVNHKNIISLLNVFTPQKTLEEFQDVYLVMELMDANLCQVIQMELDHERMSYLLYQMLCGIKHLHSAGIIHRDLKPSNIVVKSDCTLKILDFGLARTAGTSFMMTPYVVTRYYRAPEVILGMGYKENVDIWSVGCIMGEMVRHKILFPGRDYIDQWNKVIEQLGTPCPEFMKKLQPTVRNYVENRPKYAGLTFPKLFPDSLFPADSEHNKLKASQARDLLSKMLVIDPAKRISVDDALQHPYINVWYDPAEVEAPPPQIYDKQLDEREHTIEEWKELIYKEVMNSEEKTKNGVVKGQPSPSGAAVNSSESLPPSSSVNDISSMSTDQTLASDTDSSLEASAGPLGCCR
Chain of GSK3beta (P49841 whole entry, species assumed): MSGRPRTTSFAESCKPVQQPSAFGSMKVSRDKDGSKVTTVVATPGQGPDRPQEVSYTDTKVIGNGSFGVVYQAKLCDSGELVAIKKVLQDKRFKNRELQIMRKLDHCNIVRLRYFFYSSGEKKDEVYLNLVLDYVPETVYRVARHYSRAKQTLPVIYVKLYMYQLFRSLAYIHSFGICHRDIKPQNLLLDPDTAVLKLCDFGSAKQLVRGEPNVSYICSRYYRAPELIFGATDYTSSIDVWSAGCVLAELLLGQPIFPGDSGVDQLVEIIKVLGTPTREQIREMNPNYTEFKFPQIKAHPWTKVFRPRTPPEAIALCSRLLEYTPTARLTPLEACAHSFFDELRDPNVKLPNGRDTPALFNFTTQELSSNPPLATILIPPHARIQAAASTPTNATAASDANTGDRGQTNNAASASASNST

For `Cl.N[C@H]1CC[C@H](Nc2nc(-n3cnc4cc(Cl)c(Cl)cc43)c3nc[nH]c3n2)CC1` [Example 8, Trans-N-[6-(5,6-dichloro-1H-benzimidazol-1-yl)-9H-purin-2-yl]-1,4-cyclohexanediamine hydrochloride], the IC50 in assay [1] is 0.84 µM. This compound also showed an MIC in assay [2] of 32 µg/mL. Also, the inhibition at 20 µM in assay [3] stood at 93%.

`Cl.Cl.N[C@H]1CC[C@H](Nc2nc(N3CCc4cc([N+](=O)[O-])ccc43)c3nc[nH]c3n2)CC1` [Example 30, Trans-N-[6-(2,3-dihydro-5-nitro-1H-indol-1-yl)-9H-purin-2-yl]-1,4-cyclohexanediamine dihydrochloride]: the IC50 in assay [4] was determined as 1.5 µM. For the same compound, the inhibition at 20 µM in assay [5] and in assay [3] was 99% in each case.

The MIC is the lowest concentration found to suppress growth. One may read the inhibition as the change of the read-out against control, counted positive when it falls.

Values taken from US7476670B2, “Purine derivatives, method for preparing, pharmaceutical compositions and novel use” (Aventis Pharma S.A., priority 2003, dated 2009).
